This note sets out measurements from ChEMBL document CHEMBL1201862, “PubChem BioAssay data set” (2004).

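In this assay, cells in 96-well plates receive the compound at five concentrations for 48 hours. Endpoints are linearly interpolated between the surrounding concentrations. Abbreviation: GI50, concentration required for 50% inhibition of growth.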 Activity calls are given as the source filed them. No stated cut-off is given here; in the data, active = GI50 up to about 1.1 µM and inactive = higher.

Some test systems named below: 786-0; A498; CAKI-1; CCRF-CEM; COLO 205; EKVX; HCC 2998; HCT-116; KM12; MCF7; MDA-MB-231; NCI-H522; NCI/ADR-RES; SF-295; SN12C; SNB-75; SR; T47D; UACC-257; UO-31.
What all share (assay): inhibition of tumour cell growth, NCI panel, 48 h

Turning to `O=[N+]([O-])c1cccc2nc3ccccc3c(NCCCn3ccnc3[N+](=O)[O-])c12`, the GI50 was 0.000175 µM (active) with 786-0; 0.000227 µM (active) with A498; 0.000385 µM (active) in the experiment with CAKI-1; 0.00574 µM (active) in the experiment on CCRF-CEM; 0.000109 µM (active) in the experiment with COLO 205; 0.000298 µM (active) in the experiment with EKVX. Also, the GI50 was 0.000156 µM (active) in the experiment on HCC 2998; < 0.0001 µM (active) in the experiment with HCT-116; 0.000114 µM (active) in the experiment on KM12; < 0.0001 µM (active) in the experiment on MCF7; 0.000168 µM (active) in the experiment with MDA-MB-231; 0.00046 µM (active) in the experiment on NCI-H522. Also, the GI50 in the experiment with NCI/ADR-RES was 0.0238 µM (active); in the experiment with SF-295, 0.0117 µM (active); in the experiment on SN12C, 0.000282 µM (active); with SNB-75, 0.0137 µM (active); in the experiment with SR, 0.02 µM (active); in the experiment on T47D, 0.0407 µM (active). Moreover, the GI50 is 0.0039 µM (active) with UACC-257 and 0.00076 µM (active) in the experiment with UO-31.

In the case of `CC(=O)N(C)C(C(=O)N1CC(C)CC1C(=O)N(C)C1C(=O)NC(CC(C)C)C(=O)N2CC(C)CC2C(=O)NC(CC(C)C)C(=O)N(C)C(C(C)C)C(=O)N2CCCC2C(=O)N(C)C(CC(C)C)C(=O)NCC(=O)OC1C)C(C)C` (stereo not given), the GI50 in the experiment with 786-0, with A498, with CAKI-1, in the experiment with CCRF-CEM, in the experiment on COLO 205 and in the experiment on EKVX was > 100 µM (inactive) each time. For the same compound, the GI50 in the experiment with HCC 2998, with HCT-116, in the experiment with KM12, in the experiment on MCF7, in the experiment on MDA-MB-231 and in the experiment on NCI-H522 was > 100 µM (inactive) in each case. In addition, the GI50 in the experiment with NCI/ADR-RES, with SF-295, in the experiment with SN12C, in the experiment with SNB-75, in the experiment with SR and with T47D was > 100 µM (inactive) throughout. For the same compound, the GI50 in the experiment with UACC-257 and in the experiment on UO-31 was > 100 µM (inactive) each time.

Regarding `CCOC(=O)N(Cc1cccs1)c1cc(OC)c(OC)c(OC)c1`, the GI50 was > 100 µM (inactive) with 786-0; > 100 µM (inactive) in the experiment with A498; 56.5 µM (inactive) with CAKI-1; 41 µM (inactive) in the experiment with CCRF-CEM; 7.18 µM (inactive) in the experiment with COLO 205; > 100 µM (inactive) in the experiment on EKVX. Moreover, the GI50 is > 100 µM (inactive) with HCC 2998; > 100 µM (inactive) with HCT-116; 47.5 µM (inactive) in the experiment on KM12; 58.2 µM (inactive) with MCF7; 75 µM (inactive) in the experiment with MDA-MB-231; 32.6 µM (inactive) with NCI-H522. Besides, the GI50 in the experiment on NCI/ADR-RES is 3.01 µM (inactive); in the experiment with SF-295 it was > 100 µM (inactive); in the experiment on SN12C, > 100 µM (inactive); in the experiment with SNB-75 it was 49.4 µM (inactive); in the experiment on SR it was 21.3 µM (inactive); with T47D it was 54.1 µM (inactive). Moreover, the GI50 with UACC-257 was > 100 µM (inactive); in the experiment on UO-31 it was 38.4 µM (inactive).

In the case of `ClCc1nn(-c2ccccc2)c(CCl)c1CCl`, the GI50 is 2.56 µM (inactive) in the experiment on 786-0; 12 µM (inactive) in the experiment on A498; 7.31 µM (inactive) in the experiment on CAKI-1; 1.17 µM (inactive) with CCRF-CEM; 3.88 µM (inactive) in the experiment on COLO 205; 3.03 µM (inactive) in the experiment on EKVX. Moreover, the GI50 was 12.1 µM (inactive) with HCC 2998; 2.33 µM (inactive) in the experiment on HCT-116; 3.37 µM (inactive) in the experiment on KM12; 2.38 µM (inactive) with MCF7; 4.34 µM (inactive) with MDA-MB-231; 4.25 µM (inactive) with NCI-H522. For the same compound, the GI50 was 5.57 µM (inactive) with NCI/ADR-RES; 6 µM (inactive) with SF-295; 3.11 µM (inactive) in the experiment on SN12C; 1.74 µM (inactive) in the experiment on SNB-75; 0.813 µM (active) in the experiment on SR; 3.55 µM (inactive) in the experiment with T47D. Moreover, the figures for the GI50 with UACC-257 and in the experiment on UO-31 were 7.76 µM (inactive) and 4.74 µM (inactive), respectively.

In the case of `Cc1cccc2c(N)c3cccc(C(=O)NCC[N+](C)(C)Cc4c([N+](=O)[O-])ncn4C)c3nc12`, the GI50 is 6.5 µM (inactive) with 786-0; 47.6 µM (inactive) with A498; 2.69 µM (inactive) in the experiment on CAKI-1; 18.9 µM (inactive) with CCRF-CEM; 24.3 µM (inactive) in the experiment on COLO 205; > 66.1 µM (inactive) in the experiment with EKVX. Besides, the GI50 with HCC 2998 is 6.73 µM (inactive); with HCT-116 it was 26.4 µM (inactive); in the experiment on KM12 it was 29 µM (inactive); in the experiment with MCF7, 12.8 µM (inactive); with MDA-MB-231, 38.5 µM (inactive); in the experiment with NCI-H522, 12.4 µM (inactive). Also, the GI50 in the experiment on NCI/ADR-RES was > 49.9 µM (inactive); in the experiment with SF-295, 25.4 µM (inactive); in the experiment on SN12C it was 6.93 µM (inactive); in the experiment with SNB-75, 27.4 µM (inactive); in the experiment on SR it was 23 µM (inactive); with T47D it was 67.8 µM (inactive). Besides, the GI50 with UACC-257 was 49.9 µM (inactive); in the experiment on UO-31 it was 16.6 µM (inactive).

For `COc1cc(NCc2ccc3nc(OC)c(OC)nc3c2)cc(OC)c1OC`, the GI50 was > 100 µM (inactive) in the experiment with 786-0; > 100 µM (inactive) in the experiment with A498; > 100 µM (inactive) with CAKI-1; 83.9 µM (inactive) in the experiment with CCRF-CEM; > 100 µM (inactive) in the experiment with COLO 205; 77.4 µM (inactive) in the experiment on EKVX. Moreover, the GI50 is > 100 µM (inactive) in the experiment with HCC 2998; > 100 µM (inactive) in the experiment with HCT-116; > 100 µM (inactive) with KM12; 69.5 µM (inactive) in the experiment with MCF7; > 100 µM (inactive) in the experiment on MDA-MB-231; 86.5 µM (inactive) in the experiment with NCI-H522. Also, the GI50 in the experiment with NCI/ADR-RES was 42.1 µM (inactive); in the experiment with SF-295, 80.5 µM (inactive); in the experiment on SN12C, > 100 µM (inactive); with SNB-75 it was 54.8 µM (inactive); with SR it was 89.9 µM (inactive); in the experiment with T47D, 18.6 µM (inactive). In addition, the GI50 with UACC-257 and with UO-31 was > 100 µM (inactive) each time.

Take `S=C1Cc2c(-c3ccc(Cl)cc3)cc(-c3ccccc3)nc2-c2ccccc2N1`: the GI50 was 5.97 µM (inactive) with 786-0; 14.8 µM (inactive) with A498; 3.95 µM (inactive) in the experiment on CAKI-1; 26.2 µM (inactive) with CCRF-CEM; 16 µM (inactive) with COLO 205; 15.6 µM (inactive) in the experiment on EKVX. The GI50 with HCC 2998 was 23.9 µM (inactive); in the experiment with HCT-116, 11 µM (inactive); in the experiment with KM12, 4.85 µM (inactive); in the experiment on MCF7 it was 17.1 µM (inactive); in the experiment on MDA-MB-231 it was 7.8 µM (inactive); with NCI-H522, 15.7 µM (inactive). The GI50 in the experiment with NCI/ADR-RES was 12.7 µM (inactive); with SF-295 it was 14.2 µM (inactive); with SN12C, 13.5 µM (inactive); with SNB-75, 3.76 µM (inactive); in the experiment on SR, > 100 µM (inactive); in the experiment with T47D it was 19.8 µM (inactive). Further, the GI50 in the experiment with UACC-257 is 14.1 µM (inactive); with UO-31 it was 14.8 µM (inactive).

As for `CC(C)C(Cl)CC/C(CBr)=C(\Cl)CCl` (stereo not given), the GI50 in the experiment on 786-0 is 2.22 µM (inactive); in the experiment with A498, 19.2 µM (inactive); in the experiment on CAKI-1, 7.08 µM (inactive); with CCRF-CEM it was 0.225 µM (active); in the experiment on COLO 205 it was 5.46 µM (inactive); in the experiment with EKVX it was 19.6 µM (inactive). Moreover, the GI50 was 13.7 µM (inactive) in the experiment on HCC 2998; 2.86 µM (inactive) in the experiment with HCT-116; 3.21 µM (inactive) in the experiment with KM12; 0.646 µM (active) in the experiment with MCF7; 3.3 µM (inactive) in the experiment on MDA-MB-231; 0.794 µM (active) in the experiment with NCI-H522. The GI50 is 10.9 µM (inactive) with NCI/ADR-RES; 16.3 µM (inactive) with SF-295; 4.73 µM (inactive) in the experiment on SN12C; 2.01 µM (inactive) in the experiment on SNB-75; 1.69 µM (inactive) in the experiment with SR; 1.5 µM (inactive) in the experiment on T47D. In addition, the GI50 is 2.79 µM (inactive) in the experiment with UACC-257 and 16.9 µM (inactive) in the experiment on UO-31.

With `COc1cc(-c2cn(S(=O)(=O)c3ccc(C)cc3)c3ccccc23)nc(-c2cn(S(=O)(=O)c3ccc(C)cc3)c3ccccc23)n1`, the GI50 in the experiment on 786-0 is 1.35 µM (inactive); in the experiment with A498 it was 1.32 µM (inactive); in the experiment with CAKI-1, 1.3 µM (inactive); with CCRF-CEM, 12.2 µM (inactive); with COLO 205 it was 0.745 µM (active); in the experiment on EKVX, 0.783 µM (active). Besides, the GI50 in the experiment with HCC 2998 is 0.516 µM (active); in the experiment with HCT-116, 0.385 µM (active); in the experiment on KM12 it was 0.438 µM (active); in the experiment on MCF7, 0.395 µM (active); in the experiment on MDA-MB-231 it was 0.933 µM (active); in the experiment with NCI-H522, 0.239 µM (active). Further, the GI50 in the experiment on NCI/ADR-RES is 0.746 µM (active); with SF-295 it was 0.432 µM (active); in the experiment on SN12C, 1.85 µM (inactive); with SNB-75 it was 4.42 µM (inactive); in the experiment with SR it was 0.216 µM (active); in the experiment on T47D, > 100 µM (inactive). In addition, the GI50 with UACC-257 was 52.5 µM (inactive); with UO-31 it was 0.968 µM (active).

Regarding `C=C1CC(Cn2cc(Br)c(=O)[nH]c2=O)(c2ccc(-c3ccccc3)cc2)OC1=O` (stereo not given), the GI50 was 1.02 µM (active) with 786-0; 0.776 µM (active) in the experiment with A498; 1.13 µM (inactive) in the experiment on CAKI-1; 0.165 µM (active) with CCRF-CEM; 0.621 µM (active) in the experiment with COLO 205; 2.16 µM (inactive) with EKVX. For the same compound, the GI50 in the experiment on HCC 2998 was 1.66 µM (inactive); with HCT-116, 0.301 µM (active); with KM12 it was 1.52 µM (inactive); in the experiment on MCF7 it was 0.427 µM (active); in the experiment with MDA-MB-231 it was 3.08 µM (inactive); with NCI-H522, 0.655 µM (active). Further, the GI50 with NCI/ADR-RES is 1.41 µM (inactive); in the experiment with SF-295 it was 4.45 µM (inactive); in the experiment on SN12C, 1.9 µM (inactive); in the experiment on SNB-75, 4.49 µM (inactive); in the experiment on SR it was 0.32 µM (active); in the experiment on T47D it was 2 µM (inactive). In addition, the figures for the GI50 in the experiment on UACC-257 and in the experiment on UO-31 were 0.836 µM (active) and 2.03 µM (inactive), respectively.
